According to US5578570A, “Method of treating septic shock using thymosin β4” (The George Washington University Medical Center, priority 1994, dated 1996):

System: Rats with Septic Shock
Test: Survival of Sprague-Dawley rats in septic shock model (peritonitis)
Type: in vivo
Details: Table XIV, septic shock + antibiotic (gentamicin sulfate, 1 mg/rat) alone, 10 rats at 0 hr
Excerpt: Using a septic shock model in rats (Sprague-Dawley, male, 200-225 g each), the effect of thymosin β4 alone and together with antibiotics was studied. Peritonitis was induced in rats in the following way. A 1-cm incision was made into the peritoneal which exposed the cecum. A tight ligature was placed around the cecum with 4-0 suture distal to the insertion of the small bowel, forming an area of devitalized tissue while maintaining bowel continuity. A puncture wound was made with 16-gauge needle into the anti-mesenteric surface of the cecum and a small amount of fecal contents was expressed through the wound. The cecum was replaced into the peritoneal cavity, and the anterior peritoneal wall and skin were closed with surgical staples. Each animal was given a bolus of normal saline (15 ml/kg) for hydration and allowed to recover overnight.

gentamicin sulfate [antibiotic, reference compound]
Survival of rats (number alive) (24 hr): 1
Survival of rats (number alive) (48 hr): 1
Survival of rats (number alive) (72 hr): 0
